PMC6274474, “Synthesis and Cytotoxic Activity on Human Cancer Cells of Novel Isoquinolinequinone–Amino Acid Derivatives” (Molecules, 2016)
Where two headings read alike, the source gives them in different places.

Legend:
[1] = test system: SK-MES-1 human lung cancer cells; assay: MTT cytotoxicity assay, 72 h, lung cancer cells; format: cell-based; conditions: 72 h exposure, six determinations, read-out: IC50 ± SEM SK-MES-1
Procedure: (§1) The series of isoquinolinequinone amino ester conjugates (Table 1) and the bromine derivatives (Table 2) were evaluated for their in vitro cytotoxic activities against normal human lung fibroblast (MRC-5) and three human cancer cells lines: human gastric adenocarcinoma (AGS), human lung cancer (SK-MES-1), and human bladder carcinoma (J82), in 72 h drug exposure assays. The cytotoxic activities of the new compounds were measured using conventional microculture tetrazolium reduction assays. The cytotoxic activities of each of the quinones are expressed in terms of IC50.
(§2) Cytotoxicity assay (Table 3 and Table 4). […] MRC-5, SK-MES-1, and J82 cells were grown in Eagle’s minimal essential medium (EMEM) containing 2 mM L-glutamine, 1 mM sodium pyruvate and 1.5 g/L sodium hydrogen carbonate. AGS cells were grown in Ham F-12 supplemented with 2 mM L-glutamine and 1.5 g/L sodium hydrogen carbonate. Finally, HL-60 cells were grown in RPMI medium. […] For the cytotoxicity experiments, cells were seeded into 96-well plates at a density of 50,000 cells/mL. After reaching confluence, cells were incubated for three days with compounds at varied concentrations ranging from 0 up to 100 μM while untreated cells (medium containing 1% DMSO) were used as controls. Cytotoxicity was assessed using the MTT (3-(4,5-dimethylthiazol-2-yl)-2,5-diphenyltetrazolium bromide) reduction assay. MTT was used at 1 mg/mL and the blue formazan crystals, formed during MTT reduction, were dissolved adding 100 μL of ethanol (acidified with HCl). The absorbance was measured at 550 nm using a Universal Microplate Reader (ELX 800, Bio-Tek Instruments Inc., Winooski, VT, USA). Values were the means of six replicates for each concentration and transformed to percentage of controls. The IC50 value was graphically obtained from the dose–response curves by adjusting them to a sigmoidal model (a + (b − a)/1 + 10(x − c)), where c = log IC50.

[2] = test system: AGS human gastric adenocarcinoma cells; assay: MTT cytotoxicity assay, 72 h, gastric adenocarcinoma cells; format: cell-based; conditions: 72 h exposure, six determinations, read-out: IC50 ± SEM AGS
Procedure: as §1, §2

[3] = test system: AGS, SK-MES-1 and J82 human cancer cell lines; assay: MTT cytotoxicity, 72 h, panel summary (mean/range/selective index) over AGS, SK-MES-1, J82 vs MRC-5; format: cell-based; conditions: SK-MES-1, J82; for IC50: Homo sapiens; for MSI: Mean Selective Index = IC50 values for fibroblasts/IC50 values tumor cells: MRC-5 vs AGS
Procedure: as §1, §2

[4] = test system: MRC-5 normal human lung fibroblasts; assay: MTT cytotoxicity assay, 72 h, normal human lung fibroblasts; format: cell-based; conditions: MRC5; normal human lung fibroblasts, MTT, 72 h exposure, six determinations; read-out: IC50 ± SEM MRC-5
Procedure: as §1, §2

[5] = test system: J82 human bladder carcinoma cells; assay: MTT cytotoxicity assay, 72 h, bladder carcinoma cells; format: cell-based; conditions: 72 h exposure, six determinations, read-out: IC50 ± SEM J82
Procedure: as §1, §2

[6] = SK-MES-1, mean over AGS, read-out: mean IC50 on cancer cells

melting point	Structure (SMILES)	IC50 [1]	IC50 [2]	IC50 [3, 6]	IC50 [4]	IC50 [5]	MSI: Mean Selective Index = IC50 values for fibroblasts/IC50 values tumor cells [3]	IC50 ([3]; SK-MES-1, 72 h, range over AGS, 72 h MTT, read-out: IC50 values range over the cancer cell lines)
–	COC(=O)c1c(C)ncc2c1C(=O)C=C(N[C@@H](C)C(=O)OC)C2=O [Compound 2a, Methyl 6- and 7-(1-methoxy-1-oxopropan-2-ylamino)-3-methyl-5,8-dioxo-5,8-dihydroisoquinoline-4-carboxylate]	2.65 ± 0.19 µM	2.25 ± 0.15 µM	< 4 µM	9.04 ± 0.69 µM	6.25 ± 0.44 µM	–	–
–	COC(=O)c1c(C)ncc2c1C(=O)C=C(N[C@H](C(=O)OC)C(C)C)C2=O [Compound 3a, Methyl 6- and 7-(1-methoxy-3-methyl-1-oxobutan-2-ylamino)-3-methyl-5,8-dioxo-5,8-dihydro-isoquinoline-4-carboxylate]	4.62 ± 0.28 µM	1.94 ± 0.08 µM	–	4.94 ± 0.25 µM	7.49 ± 0.44 µM	1.10	–
–	COC(=O)c1c(C)ncc2c1C(=O)C=C(N[C@@H](CC(C)C)C(=O)OC)C2=O [Compound 4a]	4.56 ± 0.31 µM	2.97 ± 0.15 µM	–	5.7 ± 0.29 µM	7.65 ± 0.51 µM	1.13	–
58.5 to 60.5 °C	COC(=O)c1c(C)ncc2c1C(=O)C(N[C@@H](CC(C)C)C(=O)OC)=CC2=O [Compound 4b, Methyl 6- and 7-(1-methoxy-4-methyl-1-oxopentan-2-ylamino)-3-methyl-5,8-dioxo-5,8-dihydroisoquinoline-4-carboxylate]	2.22 ± 0.12 µM	1.59 ± 0.07 µM	–	1.77 ± 0.14 µM	2.35 ± 0.09 µM	0.86	0.58 to 3.18 µM
–	COC(=O)c1c(C)ncc2c1C(=O)C=C(N[C@@H](CCSC)C(=O)OC)C2=O [Compound 5a]	2.93 ± 0.11 µM	2.54 ± 0.21 µM	–	5.22 ± 0.31 µM	6 ± 0.32 µM	1.42	–
–	COC(=O)c1c(C)ncc2c1C(=O)C=C(N[C@@H](Cc1ccccc1)C(=O)OC)C2=O [Compound 6a, Methyl 6- and 7-(1-methoxy-1-oxo-3-phenylpropan-2-ylamino)-3-methyl-5,8-dioxo-5,8-dihydroisoquinoline-4-carboxylate]	2.5 ± 0.15 µM	1.85 ± 0.13 µM	< 4 µM	6.73 ± 0.34 µM	4.68 ± 0.23 µM	–	–
76.5 to 78.5 °C	COC(=O)c1c(C)ncc2c1C(=O)C(N[C@@H](Cc1ccc(O)cc1)C(=O)OC)=CC2=O [Compound 7b]	2.57 ± 0.12 µM	1.53 ± 0.06 µM	–	3.74 ± 0.26 µM	7.11 ± 0.55 µM	1.00	–
